Patent US20110053923A1, “CHEMICAL COMPOUNDS 610” (AstraZeneca, priority 2008, published 2011)
Like-named read-outs stand apart in the source and are kept apart here.

Legend:
mTOR = mTOR (Homo sapiens, UniProt P42345); assay: Enzyme - mTOR Kinase Assay (Echo); type: biochemical; conditions: recombinant FLAG-tagged mTOR (1362-2549); AlphaScreen; ATP 20 μM;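 note: enzyme expressed in HEK293 cells, 2 h incubation at room temperature, read-out is phosphorylation of a biotinylated peptide substrate detected with an anti-phospho p70 S6 Kinase (T389) antibody, inhibition lowers signal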
ATR = target: T1, ATR (Homo sapiens, UniProt Q13535); assay: Enzyme Assay - ATR (Test (a)); type: biochemical;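 note: kinase activity of bead-bound ATR toward a GST-p53 N-terminal fragment substrate, 1 h at 37 °C, read by chemiluminescence, with inhibitor-free wells as control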
T1 construct: obtained from HeLa nuclear extract (CIL Biotech, Mons, Belgium) by immunoprecipitation with rabbit polyclonal antiserum raised to amino acids 400-480 of ATR; host or cells: HeLa nuclear extract

[1] = ATR immunoprecipitated from HeLa nuclear extract, 3 μM ATP, average of individual tests, read-out: ATR average IC50

T1 sequence (Q13535 whole entry, the tested form may be a part): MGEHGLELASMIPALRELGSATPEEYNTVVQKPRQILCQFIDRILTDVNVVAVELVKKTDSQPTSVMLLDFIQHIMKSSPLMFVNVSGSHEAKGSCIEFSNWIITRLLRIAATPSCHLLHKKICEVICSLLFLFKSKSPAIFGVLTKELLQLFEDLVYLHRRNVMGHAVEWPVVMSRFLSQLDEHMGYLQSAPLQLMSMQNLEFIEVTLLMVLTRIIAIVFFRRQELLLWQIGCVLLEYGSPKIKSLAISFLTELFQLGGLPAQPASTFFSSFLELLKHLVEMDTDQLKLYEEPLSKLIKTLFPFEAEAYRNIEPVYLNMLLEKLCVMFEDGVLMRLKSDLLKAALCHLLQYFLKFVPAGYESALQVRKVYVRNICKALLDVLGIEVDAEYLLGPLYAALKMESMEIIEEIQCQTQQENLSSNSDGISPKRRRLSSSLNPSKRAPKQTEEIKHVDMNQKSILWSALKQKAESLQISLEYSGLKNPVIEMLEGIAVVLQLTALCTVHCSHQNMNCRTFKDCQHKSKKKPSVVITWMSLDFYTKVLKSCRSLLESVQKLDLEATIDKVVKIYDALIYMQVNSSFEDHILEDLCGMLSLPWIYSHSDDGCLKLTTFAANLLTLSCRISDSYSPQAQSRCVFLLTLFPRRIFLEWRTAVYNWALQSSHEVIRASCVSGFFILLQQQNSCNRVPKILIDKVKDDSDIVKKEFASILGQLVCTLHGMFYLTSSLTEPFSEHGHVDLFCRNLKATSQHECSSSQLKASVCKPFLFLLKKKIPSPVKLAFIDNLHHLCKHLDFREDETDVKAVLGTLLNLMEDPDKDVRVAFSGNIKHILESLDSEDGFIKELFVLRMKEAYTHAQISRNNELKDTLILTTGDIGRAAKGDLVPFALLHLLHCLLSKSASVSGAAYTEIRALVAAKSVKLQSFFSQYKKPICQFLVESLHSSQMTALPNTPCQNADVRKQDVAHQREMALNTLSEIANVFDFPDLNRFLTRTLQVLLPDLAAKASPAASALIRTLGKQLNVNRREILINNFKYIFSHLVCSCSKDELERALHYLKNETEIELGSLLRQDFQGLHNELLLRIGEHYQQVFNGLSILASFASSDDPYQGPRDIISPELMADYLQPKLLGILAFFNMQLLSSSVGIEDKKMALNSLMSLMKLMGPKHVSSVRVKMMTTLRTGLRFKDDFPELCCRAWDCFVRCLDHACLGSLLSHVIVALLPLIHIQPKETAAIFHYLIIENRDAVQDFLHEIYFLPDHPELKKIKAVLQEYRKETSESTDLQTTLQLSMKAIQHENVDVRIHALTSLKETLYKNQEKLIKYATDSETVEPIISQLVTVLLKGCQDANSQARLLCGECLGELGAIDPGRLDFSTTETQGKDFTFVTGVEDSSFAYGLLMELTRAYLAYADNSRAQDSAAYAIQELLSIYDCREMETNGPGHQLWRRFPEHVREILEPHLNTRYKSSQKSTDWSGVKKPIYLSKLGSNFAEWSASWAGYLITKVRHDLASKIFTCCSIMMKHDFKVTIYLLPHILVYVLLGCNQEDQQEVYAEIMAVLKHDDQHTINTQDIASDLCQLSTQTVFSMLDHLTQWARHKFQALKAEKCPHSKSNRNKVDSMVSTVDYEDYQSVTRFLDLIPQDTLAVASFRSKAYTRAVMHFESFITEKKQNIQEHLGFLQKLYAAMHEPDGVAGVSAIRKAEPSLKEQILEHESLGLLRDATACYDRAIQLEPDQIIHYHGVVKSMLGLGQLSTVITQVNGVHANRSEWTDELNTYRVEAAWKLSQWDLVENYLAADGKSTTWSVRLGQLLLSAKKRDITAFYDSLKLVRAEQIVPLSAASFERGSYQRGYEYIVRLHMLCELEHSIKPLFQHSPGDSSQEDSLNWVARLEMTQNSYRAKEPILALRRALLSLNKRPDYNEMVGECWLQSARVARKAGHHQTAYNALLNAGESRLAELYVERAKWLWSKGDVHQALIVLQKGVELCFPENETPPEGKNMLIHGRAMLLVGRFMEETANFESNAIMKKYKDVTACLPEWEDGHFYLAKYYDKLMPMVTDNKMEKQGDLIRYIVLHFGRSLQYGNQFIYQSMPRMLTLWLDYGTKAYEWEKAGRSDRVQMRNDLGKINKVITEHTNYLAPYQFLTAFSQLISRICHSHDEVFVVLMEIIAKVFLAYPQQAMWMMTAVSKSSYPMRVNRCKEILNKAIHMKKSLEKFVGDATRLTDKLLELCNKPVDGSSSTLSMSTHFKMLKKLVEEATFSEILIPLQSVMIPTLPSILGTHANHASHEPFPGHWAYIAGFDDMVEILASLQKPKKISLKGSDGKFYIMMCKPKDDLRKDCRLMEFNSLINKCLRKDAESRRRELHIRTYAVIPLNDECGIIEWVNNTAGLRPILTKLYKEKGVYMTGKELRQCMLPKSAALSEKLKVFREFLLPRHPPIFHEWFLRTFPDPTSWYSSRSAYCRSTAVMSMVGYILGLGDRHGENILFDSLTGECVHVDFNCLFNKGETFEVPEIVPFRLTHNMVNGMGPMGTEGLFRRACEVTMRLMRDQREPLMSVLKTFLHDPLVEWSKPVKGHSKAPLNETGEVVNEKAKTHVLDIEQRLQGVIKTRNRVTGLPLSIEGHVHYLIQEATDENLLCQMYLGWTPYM
T1 sequence (Q8WXE1 whole entry partner, the tested form may be a part): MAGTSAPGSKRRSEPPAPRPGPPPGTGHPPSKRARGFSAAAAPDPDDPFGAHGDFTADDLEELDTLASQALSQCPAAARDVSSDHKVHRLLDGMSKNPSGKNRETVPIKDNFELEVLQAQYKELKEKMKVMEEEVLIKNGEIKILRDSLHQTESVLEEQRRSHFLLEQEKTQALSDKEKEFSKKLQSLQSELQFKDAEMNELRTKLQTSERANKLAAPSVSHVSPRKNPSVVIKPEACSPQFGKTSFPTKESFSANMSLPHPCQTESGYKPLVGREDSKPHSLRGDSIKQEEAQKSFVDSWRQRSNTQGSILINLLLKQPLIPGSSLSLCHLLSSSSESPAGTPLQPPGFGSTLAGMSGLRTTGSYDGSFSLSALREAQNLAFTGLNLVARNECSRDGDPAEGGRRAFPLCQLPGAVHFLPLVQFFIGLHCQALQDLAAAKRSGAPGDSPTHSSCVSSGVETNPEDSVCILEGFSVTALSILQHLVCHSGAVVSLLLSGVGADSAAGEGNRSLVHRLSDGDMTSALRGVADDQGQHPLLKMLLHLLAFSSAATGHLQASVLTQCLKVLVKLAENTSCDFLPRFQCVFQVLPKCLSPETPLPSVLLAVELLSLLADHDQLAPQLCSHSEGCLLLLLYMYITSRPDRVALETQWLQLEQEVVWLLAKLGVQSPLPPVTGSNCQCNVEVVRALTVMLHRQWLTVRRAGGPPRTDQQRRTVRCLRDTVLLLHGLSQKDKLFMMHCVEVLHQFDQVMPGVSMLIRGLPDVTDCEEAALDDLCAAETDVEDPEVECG
Sequence of mTOR (P42345 1362-2549): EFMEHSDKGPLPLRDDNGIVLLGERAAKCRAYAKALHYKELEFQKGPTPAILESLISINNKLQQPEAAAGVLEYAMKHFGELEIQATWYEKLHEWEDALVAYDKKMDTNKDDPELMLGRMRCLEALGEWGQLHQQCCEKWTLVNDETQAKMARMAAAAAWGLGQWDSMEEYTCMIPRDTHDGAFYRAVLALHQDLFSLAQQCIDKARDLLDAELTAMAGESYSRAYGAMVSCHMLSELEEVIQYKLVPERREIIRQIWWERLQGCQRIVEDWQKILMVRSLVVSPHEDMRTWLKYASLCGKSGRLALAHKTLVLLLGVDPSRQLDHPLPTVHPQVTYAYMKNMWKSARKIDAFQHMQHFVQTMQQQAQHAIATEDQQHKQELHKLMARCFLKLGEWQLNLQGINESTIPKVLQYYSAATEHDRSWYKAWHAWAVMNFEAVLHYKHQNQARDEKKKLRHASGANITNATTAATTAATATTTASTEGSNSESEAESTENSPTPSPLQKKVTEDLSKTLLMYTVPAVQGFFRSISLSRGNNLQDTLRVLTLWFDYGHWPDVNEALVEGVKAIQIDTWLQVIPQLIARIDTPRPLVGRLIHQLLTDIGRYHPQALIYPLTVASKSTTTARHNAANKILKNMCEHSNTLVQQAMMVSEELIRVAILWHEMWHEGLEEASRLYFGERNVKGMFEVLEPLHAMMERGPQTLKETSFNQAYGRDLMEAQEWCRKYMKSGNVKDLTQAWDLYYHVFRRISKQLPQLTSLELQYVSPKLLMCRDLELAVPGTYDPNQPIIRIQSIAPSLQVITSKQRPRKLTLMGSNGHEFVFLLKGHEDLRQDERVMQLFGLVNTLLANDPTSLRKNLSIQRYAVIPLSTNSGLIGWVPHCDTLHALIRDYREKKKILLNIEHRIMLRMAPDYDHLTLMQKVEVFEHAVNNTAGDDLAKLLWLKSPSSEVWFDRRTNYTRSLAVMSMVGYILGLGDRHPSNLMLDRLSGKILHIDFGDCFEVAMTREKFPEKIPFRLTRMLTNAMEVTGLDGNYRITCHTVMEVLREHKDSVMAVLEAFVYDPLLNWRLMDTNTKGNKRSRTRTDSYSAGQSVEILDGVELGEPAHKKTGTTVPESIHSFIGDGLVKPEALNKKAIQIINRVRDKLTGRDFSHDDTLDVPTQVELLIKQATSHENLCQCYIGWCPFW

SMILES | IC50 (mTOR) | IC50 (ATR; [1]) | IC50 (ATR)
CS(=O)(=O)C1(c2cc(N3CCOCC3)nc(-c3cccc4[nH]ccc34)n2)CCNCC1 [Example 1.08, 4-{4-[4-(Methylsulfonyl)piperidin-4-yl]-6-morpholin-4-ylpyrimidin-2-yl}-1H-indole] | 231 nM | 9.44 nM | 
Cc1cc(-c2nc(N3CCOC[C@H]3C)cc(C3(S(C)(=O)=O)CC3)n2)c2cc[nH]c2c1 [Example 3.02, 6-Methyl-4-{4-[(3R)-3-methylmorpholin-4-yl]-6-[1-(methylsulfonyl)cyclopropyl]pyrimidin-2-yl}-1H-indole] | 97.1 nM | 6.67 nM | 
CC(C)S(=O)(=O)C1(c2cc(N3CCOC[C@H]3C)nc(-c3cccc4[nH]ccc34)n2)CCNCC1 [Example 3.25, 4-(4-{4-[(1-Methylethyl)sulfonyl]piperidin-4-yl}-6-[(3R)-3-methylmorpholin-4-yl]pyrimidin-2-yl)-1H-indole] | 4240 nM | 20.6 nM | 
CC(C)S(=O)(=O)C1(c2cc(N3CCOC[C@H]3C)nc(-c3cccc4[nH]ccc34)n2)CCOCC1 [Example 3.24, 4-(4-{4-[(1-Methylethyl)sulfonyl]tetrahydro-2H-pyran-4-yl}-6-[(3R)-3-methylmorpholin-4-yl]pyrimidin-2-yl)-1H-indole] | 6150 nM | 261 nM | 
COc1cc(-c2nc(N3CCOC[C@H]3C)cc(C3(S(C)(=O)=O)CC3)n2)c2cc[nH]c2c1 [Example 3.07, 6-methoxy-4-{4-[(3R)-3-methylmorphohn-4-yl]-6-[1-(methylsulfonyl)cyclopropyl]pyrimidin-2-yl}-1H-indole] | 24.1 nM | 12.4 nM | 
Cc1cc(-c2nc(N3CCOC[C@H]3C)cc(C3(S(C)(=O)=O)CCOCC3)n2)c2cc[nH]c2c1 [Example 3.09, 6-Methyl-4-{4-[(3R)-3-methylmorpholin-4-yl]-6-[4-(methylsulfonyl)tetrahydro-2H-pyran-4-yl]pyrimidin-2-yl}-1H-indole] | 451 nM | 1.58 nM | 
CS(=O)(=O)C1(c2cc(N3CCOCC3)nc(-c3cccc4[nH]ccc34)n2)CC1 [Example 1.01, 4-{4-[1-(Methylsulfonyl)cyclopropyl]-6-morpholin-4-ylpyrimidin-2-yl}-1H-indole] | 179 nM |  | 
C[C@@H]1COCCN1c1cc(C2(S(C)(=O)=O)CCNCC2)nc(-c2cccc3[nH]ccc23)n1 [Example 3.15, 4-{4-[(3R)-3-Methylmorpholin-4-yl]-6-[4-(methylsulfonyl)piperidin-4-yl]pyrimidin-2-yl}-1H-indole] | 980 nM | 2.55 nM | 
Cc1cc2c(-c3nc(N4CCOCC4)cc(C4(S(C)(=O)=O)CC4)n3)cccc2[nH]1 [Example 1.03, 2-Methyl-4-{4-[1-(methylsulfonyl)cyclopropyl]-6-morpholin-4-ylpyrimidin-2-yl}-1H-indole] | 166 nM |  | 27.5 nM
CCS(=O)(=O)C1(c2cc(N3CCOC[C@H]3C)nc(-c3cccc4[nH]ccc34)n2)CCNCC1 [Example 3.22, 4-{4-[4-(Ethylsulfonyl)piperidin-4-yl]-6-[(3R)-3-methylmorpholin-4-yl]pyrimidin-2-yl}-1H-indole] | 556 nM | 8.19 nM | 
CCS(=O)(=O)C1(c2cc(N3CCOC[C@H]3C)nc(-c3cccc4[nH]ccc34)n2)CCOCC1 [Example 3.21, 4-{4-[4-(Ethylsulfonyl)tetrahydro-2H-pyran-4-yl]-6-[(3R)-3-methylmorpholin-4-yl]pyrimidin-2-yl}-1H-indole] | 686 nM | 6.89 nM | 
CC(C)S(=O)(=O)C1(c2cc(N3CCOCC3)nc(-c3cccc4[nH]ccc34)n2)CC1 [Example 1.11, 4-(4-{1-[(1-methylethyl)sulfonyl]cyclopropyl}-6-morpholin-4-ylpyrimidin-2-yl)-1H-indole] | 122 nM | 13.2 nM | 
C[C@@H]1COCCN1c1cc(C2(S(C)(=O)=O)CCOCC2)nc(-c2cc(C#N)cc3[nH]ccc23)n1 [Example 3.14, 4-{4-[(3R)-3-methylmorphohn-4-yl]-6-[4-(methylsulfonyl)tetrahydro-2H-pyran-4-yl]pyrimidin-2-yl}-1H-indole-6-carbonitrile] | 692 nM | 14.2 nM | 
CCS(=O)(=O)C1(c2cc(N3CCOCC3)nc(-c3cccc4[nH]ccc34)n2)CC1 [Example 1.10, 4-{4-[1-(ethylsulfonyl)cyclopropyl]-6-morpholin-4-ylpyrimidin-2-yl}-1H-indole] | 95.8 nM | 15 nM | 
CS(=O)(=O)C1(c2cc(N3CCOCC3)nc(-c3cccc4[nH]ccc34)n2)CCOCC1 [Example 1.09, 4-{4-[4-(Methylsulfonyl)tetrahydro-2H-pyran-4-yl]-6-morpholin-4-ylpyrimidin-2-yl}-1H-indole] |  | 3.74 nM | 
C[C@@H]1COCCN1c1cc(C2(S(C)(=O)=O)CCC2)nc(-c2cccc3[nH]ccc23)n1 [Example 3.16, 4-{4-[(3R)-3-Methylmorpholin-4-yl]-6-[1-(methylsulfonyl)cyclobutyl]pyrimidin-2-yl}-1H-indole] | 85.8 nM | 1.99 nM | 
C[C@@H]1COCCN1c1cc(C2(S(C)(=O)=O)CCOCC2)nc(-c2cccc3[nH]ccc23)n1 [Example 3.08, 4-{4-[(3R)-3-Methylmorpholin-4-yl]-6-[4-(methylsulfonyl)tetrahydro-2H-pyran-4-yl]pyrimidin-2-yl}-1H-indole] | 225 nM | 2.32 nM | 
COc1cc(-c2nc(N3CCOC[C@H]3C)cc(C3(S(C)(=O)=O)CCOCC3)n2)c2cc[nH]c2c1 [Example 3.11, 6-Methoxy-4-{4-[(3R)-3-methylmorpholin-4-yl]-6-[4-(methylsulfonyl)tetrahydro-2H-pyran-4-yl]pyrimidin-2-yl}-1H-indole] | 77.9 nM | 1.58 nM | 
CCS(=O)(=O)C1(c2cc(N3CCOC[C@H]3C)nc(-c3cccc4[nH]ccc34)n2)CC1 [Example 3.20, 4-{4-[1-(Ethylsulfonyl)cyclopropyl]-6-[(3R)-3-methylmorpholin-4-yl]pyrimidin-2-yl}-1H-indole] | 71.1 nM | 2.5 nM | 
C[C@@H]1COCCN1c1cc(C2(S(C)(=O)=O)CC2)nc(-c2cc(F)cc3[nH]ccc23)n1 [Example 3.06] | 38 nM | 3.45 nM | 
CS(=O)(=O)C1(c2cc(N3CCOCC3)nc(-c3cc(Cl)cc4[nH]ccc34)n2)CC1 [Example 1.06, 6-chloro-4-{4-[1-(methylsulfonyl)cyclopropyl]-6-morpholin-4-ylpyrimidin-2-yl}-1H-indole] | 71.2 nM | 15.8 nM | 
C[C@@H]1COCCN1c1cc(C2(S(C)(=O)=O)CC2)nc(-c2cc(C#N)cc3[nH]ccc23)n1 [Example 3.04, 4-{4-[(3R)-3-Methylmorpholin-4-yl]-6-[1-(methylsulfonyl)cyclopropyl]pyrimidin-2-yl}-1H-indole-6-carbonitrile] | 207 nM | 35.5 nM | 
C[C@@H]1COC[C@H](C)N1c1cc(C2(S(C)(=O)=O)CC2)nc(-c2cccc3[nH]ccc23)n1 [Example 4.01, 4-{4-[(3S,5R)-3,5-Dimethylmorpholin-4-yl]-6-[1-(methylsulfonyl)cyclopropyl]pyrimidin-2-yl}-1H-indole] |  | 20.2 nM | 
CS(=O)(=O)C1(c2cc(N3CC4CCC(C3)O4)nc(-c3cccc4[nH]ccc34)n2)CC1 [Example 5.01, 4-{4-[1-(Methylsulfonyl)cyclopropyl]-6-(8-oxa-3-azabicyclo[3.2.1]oct-3-yl)pyrimidin-2-yl}-1H-indole] | 21 nM |  | 
